These results are taken from US20250163057A1, “DCN-1 MODULATING COMPOUNDS AND METHODS OF USE THEREOF” (Cellarity, Inc., priority 2023, published 2025).

Read-outs that look alike come from different tables or passages of the source.

The test system of one data set is fetal hemoglobin protein. In words: HbF HPLC Cell Culture Assay. It counts as cell-based. The following applies: for EC50: 336 h, HbF induction, Day 14 of culture; for Hemoglobin HPLC Ymax obs (%): relative to a control compound. The procedure:
A Cell Culture Assay was performed to evaluate the ability of compounds to induce fetal hemoglobin in a cell culture. The amount fetal hemoglobin protein induced was measured by HPLC.
Cell culture began on Day −4 (thaw day). Thaw buffer was prepared by sterile filtering 6 mL of Human Serum Albumin and 144 mL of PBS to make sterile 1% I/PBS. Cells were removed from liquid nitrogen storage and mostly thawed in a 37° C. water bath. Once the ice in the cryovials was melted, cells were transferred quickly into a 50 mL conical tube. Cryovial was rinsed once with thaw buffer and buffer was transferred over to the conical tube as well. Next, doubling volumes of thaw buffer was added to the conical and gently swirled for ˜30 seconds to one minute (for example: 2 mL was added and swirled, then 4 mL, then 8 mL, and so on) until the volume in the conical is 32 mL. Cells and buffer were centrifuged at 300G for 8 minutes, and the supernatant was aspirated. Another 32 mL of thaw buffer was added slowly, swirling the tube. The tube was again centrifuged at 300G for 8 minutes and the supernatant was aspirated. Cells were counted by resuspending in 1 mL of expansion media and counting with AOPI to determine the concentration of cells/mL.
On day 2, Passage & Treatment Day, each cell culture well was counted. Next fresh CD34 Expansion Media was made which contained StemSpan SFEM, CC100 and TPO all from StemCell technologies. Appropriate volume of cells was collected, centrifuged at 300 g and resuspended in fresh media. Cells were plated in treatment format at a density of 200,000 cells/ml, 25,000 cells/well. Finally, they were treated with test compounds as well as positive and negative controls.
On Days 0, 3 & 5 the same process was carried out. First, each cell culture well was counted. Next Phase 1 Erythroid Differentiation Media was freshly made, which contained StemSpan SFEM, 2.5 U/ml EPO, 0.5 mg/ml Holo-TF, 1× Glutamax, 5 μl/ml chemically defined lipid mixture, 10 ng/ml insulin, 50 ng/ml SCF, 10 ng/ml IL-3. Appropriate volume of cells was collected, centrifuged at 300 g and resuspended in fresh media. Cells should now be in fresh wells at a density of 100,000 cells/ml. 60,000 cells, 60,000 cells and 100,000 cells for days 0, 3, 5 respectively. Finally, fresh compound was added to each well at each timepoint (Days 0, 3 & 5).
On Day 7 media and cell culture density changes. Each cell culture well was counted. Next, Phase 2 Erythroid Differentiation Media was freshly made, which contains StemSpan SFEM, 2.5 U/ml EPO, 0.5 mg/ml Holo-TF, 1× Glutamax, 5 μl/ml chemically defined lipid mixture, 10 ng/ml insulin, 50 ng/ml SCF. Appropriate volume of cells was collected, centrifuged at 300 g and resuspended in fresh media. Cells were plated in fresh wells at a density of 500,000 cells/ml, 300,000 cells/well. Finally, fresh compound was added to each well at Day 7 timepoint.
On Day 10 media formulation is once again changed. Each cell culture well was counted. Fresh Phase 3 Erythroid Differentiation Media was made which contains StemSpan SFEM, 2.5 U/ml EPO, 0.5 mg/ml Holo-TF, 1× Glutamax, 5 μl/ml chemically defined lipid mixture, 10 ng/ml insulin. Appropriate volume of cells was collected, centrifuged at 300 g and resuspended in fresh media. Cells were plated in fresh wells at a density of 500,000 cells/ml, 500,000 cells/well. Finally, fresh compound was added to each well at Day 10 timepoint.
On Day 12 the cell density is once again changed. Each cell culture well was counted. Fresh Phase 3 Erythroid Differentiation Media was made. Appropriate volume of cells was collected, centrifuged at 300 g and resuspended in fresh media. Cells were plated in fresh wells at a density of 1,000,000 cells/ml, 1,000,000 cells/well. Finally fresh compound was added to each well.
Day 14 (18th day of experiment) refers to the terminal day of culture. Each cell culture well was counted. Next between 150K and 650K cells were placed in a uniquely labeled 1.5 ml standard tube. […]

The next data set concerns the target DCN1 protein (Homo sapiens (Human), UniProt Q96GG9). The experiment in a line: Intact Protein MS Analysis with the RapidFire-TOF System (covalent adduct formation). The data set is classed as binding. The following applies: MS Emax; 400 nM DCN1, 3 hours at room temperature. Summed up:
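Tag-cleaved human DCN1 (400 nM) expressed in E. coli, in 25 mM Tris-HCl, 200 mM NaCl, 1 mM DTT, was incubated with 11 compound concentrations for 3 h at room temperature and quenched with 0.2% formic acid. Intact-protein Q-TOF MS with deconvolution detected the compound adduct mass.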

The test system of data set [1] is Cullin-3 (CUL3) neddylation. In words: AlphaLISA assay for Cullin-3 (CUL3) neddylation in TF 1 cells. It counts as cell-based. The following applies: Homo sapiens, TF-1, 3 h, 3 hours treatment. Summed up:
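TF 1 cells in unsupplemented IMDM treated with compound concentrations for 3 h, then lysed. CUL3 neddylation detected by AlphaLISA (biotinylated anti-NEDD8, anti-CUL3 acceptor beads overnight, streptavidin donor beads 1 h); normalized to vehicle (0%) and 1 μM DI-1548 (100%), IC50 from Hill fits.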
In general terms: Alpha assays give light when donor and acceptor beads are brought close together.

For data set [2], the target named is T1, DCN1 (DCUND1) protein PONY domain (Homo sapiens (Human), UniProt Q96GG9). In words: TR-FRET assay, DCN1 binding with FAM-labeled probe. Summed up: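 Binding was read as the TR-FRET ratio between a FAM-tagged inhibitor probe and Tb-labeled biotinylated E. coli-expressed DCN1 PONY domain, measured 1, 5 and 24 h after compound addition. The two setups used 5 nM protein/20 nM FAM-probe or 0.31 nM protein/900 nM total probe (100 nM labeled), in TritonX buffer with 200 mM NaCl.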
In general terms: In TR-FRET formats the signal depends on donor and acceptor labels being close together.

Data set [3] addresses T1, DCN1 (DCUND1) protein PONY domain. In words: Off-rate measurement of reversible covalent molecules (jump dilution TR-FRET with Cy5 probe). The data set is classed as binding. An excerpt:
A typical covalent compound is assumed to stay bound to a protein for at least the life of that protein in the cell. In reality, there is a range of how long a covalent compounds remains bound before a reverse reaction takes place. Thus, some covalent bonds can be labeled as reversible as their reverse reaction takes place in a measurable amount of time under physiological conditions. The assay capitalizes on the range of covalent binders by using a high affinity covalent binder as a probe to displace the more reversible binders in an adaptation of the jump dilution method.
In this version of the jump dilution method, the increase in covalent probe binding over time was measured through a TR-FRET reaction between the covalent probe and the biotinylated target protein.
The recombinant form of the DCN1 (DCUND1) protein PONY domain was produced using an E. coli expression system at Viva Biotech (China). The DCN1 protein was biotinylated (EZ sulfo-NHS-LC-biotin; Thermofisher) for labeling with streptavidin terbium (Tb) cryptate in the reaction. This biotinylated protein was used in two forms of the TR-FRET assay as described below.
The off-rate measurement is executed in two steps based on the jump dilution method. […] The greatest dilution allowed within the constraints of the assay was chosen. These factors allow a competitive advantage for the covalent probe to replace the test compound when that compound releases from the target protein. The actual measure is the rate of increased TR-FRET signal as the covalent probe replaces the test compound over time. […] The resulting time dependent curve of the TR-FRET signal is fit to the following equation:
Y=Y0+(Plateau−Y0)*(1−exp(−K*x))
K is the rate constant (1/unit of time). The residence time is defined as the inverse of K, the rate constant. The half-life is calculated as ln(2)/K.

Data set [4] has as its target DCN2 (DCUND2) protein PONY domain (Homo sapiens (Human), UniProt Q6PH85). In words: Measurement of Kinact/KI in the DCN2 TR-FRET Assay. The data set is classed as binding. The following applies: for Ki / kinact: time-dependent IC50 over 24 hrs. The procedure:
A TR-FRET Assay was performed to evaluate the ability of the compounds to bind DCN-2.
The time resolved—Forster's resonance energy transfer (TR-FRET) assay was designed following the protocol established in (Scott et al., Nat Chem Biol. 2017 August; 13(8): 850-857). A recombinant form of the DCN2 (DCUND2) protein PONY domain was produced using an E. coli expression system at Viva Biotech China. The DCN2 protein was biotinylated (EZ sulfo-NHS-LC-biotin; Thermofisher) for labeling with 2.5 nM streptavidin terbium (Tb) cryptate in the reaction. The probe was changed to a non-covalent DCN1 inhibitor labeled with carboxyfluorescein (FAM; Zhou et al, Nat Commun. 2017; 8: 1150). Buffer conditions were modified to enhance protein stability by replacing TritonX with 0.05% Tween20 and increasing NaCl to 200 mM. The compounds were screened against 0.31 nM DCN1 and 40 nM FAM-labeled probe in a 40 ul reaction volume. The TR-FRET ratio between Tb-DCN1 and the FAM-labeled probe was measured in a 384-well opti-plate (Perkin Elmer) using a plate reader (BMG) at after treatment with compound (final DMSO concentration of 0.1%). The ratio was normalized to the high (DCN1 and FAM-probe) and low (DCN1 and no probe) controls for a readout of % activity (=100*(x−low)/(high−low)).
The Kinact and KI measurements were taken to allow for continuous reads over 24 hrs. Plates were read every 5 min up to 1 hr, every 15 min up to 5 hr, and every hour up to […]. Kinact and KI were calculated based on the following equations (Krippendorff B F, et al. Mechanism-based inhibition: deriving K(I) and k(inact) directly from time-dependent IC(50) values. J BiomolScreen. 2009; Mons E et al. A Comprehensive Guide for Assessing Covalent Inhibition in Enzymatic Assays Illustrated with Kinetic Simulations. CurrProtoc. 2022) where the KM of the probe against DCN2 is 21.62 nM. The Kinact and KI values could be estimated from the tight curves of the IC50 values over time.

Setting [5] is: 24 hr after treatment with compound, read-out: TR FRET IC50 24 hr.
[6] abbreviates: read-out: TR FRET IC50 1 hr, 1 hr after treatment with compound.

T1 sequence (Q96GG9 60-248): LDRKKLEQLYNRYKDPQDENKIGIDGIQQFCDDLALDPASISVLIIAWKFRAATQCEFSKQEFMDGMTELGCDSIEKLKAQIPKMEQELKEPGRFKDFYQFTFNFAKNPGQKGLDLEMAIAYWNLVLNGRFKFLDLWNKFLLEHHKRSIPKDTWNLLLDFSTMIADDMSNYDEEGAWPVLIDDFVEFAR
Chain of DCN2 (DCUND2) protein PONY domain (Q6PH85 60-248): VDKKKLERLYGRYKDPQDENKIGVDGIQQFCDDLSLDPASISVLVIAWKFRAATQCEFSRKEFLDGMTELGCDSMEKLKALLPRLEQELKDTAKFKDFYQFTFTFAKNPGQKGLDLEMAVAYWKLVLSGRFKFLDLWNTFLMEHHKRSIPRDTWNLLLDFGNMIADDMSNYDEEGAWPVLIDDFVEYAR
Chain of DCN1 protein (Q96GG9 whole entry): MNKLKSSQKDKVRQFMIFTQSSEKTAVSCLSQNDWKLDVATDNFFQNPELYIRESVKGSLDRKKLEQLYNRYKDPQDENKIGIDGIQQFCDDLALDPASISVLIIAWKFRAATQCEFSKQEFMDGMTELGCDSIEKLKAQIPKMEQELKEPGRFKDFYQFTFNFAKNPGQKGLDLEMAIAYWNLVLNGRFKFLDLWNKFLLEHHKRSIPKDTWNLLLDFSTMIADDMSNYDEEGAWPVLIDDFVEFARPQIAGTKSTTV

Usually EC50 stands for the concentration needed to bring the measured effect to its halfway point. Lower therefore signals a more potent agent. The IC50 is the point on the concentration scale where inhibition reaches its midpoint. `CCN1C(=O)[C@@H](NC(=O)c2cccc(C(F)(F)F)c2)[C@@H](c2ccc(F)cc2)c2c(C(=O)N(C)CC#N)nn(-c3ccccc3)c21` (racemic) [Compound I-5, rac-(4R,5R)—N-(cyanomethyl)-7-ethyl-4-(4-fluorophenyl)-N-methyl-6-oxo-1-phenyl-5-(3-(trifluoromethyl)benzamido)-4,5,6,7-tetrahydro-1H-pyrazolo[3,4-b]pyridine-3-carboxamide] had an EC50 with fetal hemoglobin protein of 0.05 to 0.2 µM. Also, the “Hemoglobin HPLC Ymax obs (%)” value in the data set with fetal hemoglobin protein is “++ (Hemoglobin HPLC Ymax greater than 65.0 and less than or equal to 100.0)”. On DCN1 protein, the “% Adduct Formation” value is “+++ (MS Emax % adduct formation greater than 80.0 and less than or equal to 100.0)”. Also, the IC50 in data set [1] is not above 0.1 µM; in data set [2] (setting [5]), not above 200 nM; in data set [2] (TR FRET IC50 1 hr (nM), 1 hr after treatment with compound) it was not above 200 nM.

In the data set with fetal hemoglobin protein, `CCN1C(=O)[C@@H](NC(=O)c2cccc(C(F)(F)F)c2)C(c2ccc(F)cc2)c2c(C(=O)N(CC#N)C3COC3)nn(-c3ccccc3)c21` (mixture of isomers) [Compound I-285] yielded a half-maximal effective concentration (EC50) not above 0.05 µM. In the data set on fetal hemoglobin protein, the “Hemoglobin HPLC Ymax obs (%)” value was “++ (Hemoglobin HPLC Ymax greater than 65.0 and less than or equal to 100.0)”. Also, the “% Adduct Formation” value at DCN1 protein is “+++ (MS Emax % adduct formation greater than 80.0 and less than or equal to 100.0)”. Also, the IC50 in data set [1] was not above 0.1 µM; in data set [2] (setting [5]), not above 200 nM; in data set [2] (setting [6]), not above 200 nM.

The koff is a measure of how fast the partners let go of each other. For orientation: half-life means how long it takes for the measured level to halve. Read a low half-life as fast loss. Turning to `CCN1C(=O)[C@@H](NC(=O)c2cccc(C(F)(F)F)c2)[C@@H](C2CC2)c2c(C(=O)N3C[C@H](NC)C[C@H]3C#N)nn(C3CCOCC3)c21` [Compound I-425, N-((4S,5S)-3-((2S,4R)-2-cyano-4-(methylamino)pyrrolidine-1-carbonyl)-4-cyclopropyl-7-ethyl-6-oxo-1-(tetrahydro-2H-pyran-4-yl)-4,5,6,7-tetrahydro-1H-pyrazolo[3,4-b]pyridin-5-yl)-3-(trifluoromethyl)benzamide], the Category entry in data set [3] (binding mode category from off-rate assay) was “fast reversible”. Also, the residence time in data set [3] (inverse of rate constant K, jump dilution TR-FRET) amounted to 76 min. In addition, the koff in data set [3] (jump dilution, Cy5 covalent probe 150 nM, TR-FRET) was 0.000219 s⁻¹. The half-life in data set [3] (ln(2)/K, jump dilution TR-FRET) was determined as 52.69 min. Moreover, the kinact/KI in data set [4] (read-out: Kinact/KI (converted)) is 5000 M⁻¹ s⁻¹. In data set [4], the Ki worked out at 0.0216 µM. Moreover, in data set [4] (read-out: Kinact (converted)), the kinact was 0.000115 s⁻¹. Besides, the IC50 in data set [1] was not above 0.1 µM; in data set [2] (setting [5]), not above 200 nM; in data set [2] (setting [6]), not above 200 nM.

For `C=C(CN1CCOCC1)C(=O)NC[C@@H](NC(=O)[C@H](Cc1nc2ccc(C(C)C)cc2s1)NC(=O)CC)C1CCCCC1` [DI-1548, reference compound], in data set [4], the kinact/KI was determined as 0.9971 nM − 1 * min − 1, the Ki came to 0.000355 µM and the kinact was 0.3536 min^ − 1.
